# In patent US8129532B2, “Amino(oligo)thiophene dyes, preparation thereof, and optical methods of use” (The University of Connecticut, priority 2007, dated 2012):
# Legend:
# [1] = tested on: NIE-115 mouse neuroblastoma; test: SHG and 2PF voltage sensitivity, 50 mV step, slow switching protocol on patch-clamped neuroblastoma cell; type: cell-based; settings: comparator named in the sentence (PY-1266; PY-1268)
# Source text: For full details of our non-linear imaging microscope, we refer the reader to previously published descriptions. A. C. Millard, P. J. Campagnola, W. Mohler, A. Lewis, and L. M. Loew, “Second Harmonic Imaging Microscopy,” Meth. Enzymol. 361, 47-69 (2003); Millard, A. C., L. Jin, and L. M. Loew, “Second Harmonic Generation Imaging Microscopy with a High Power Ultrafast Fiber Laser,”Commercial and Biomedical Applications of Ultrafast Lasers. 5714-5716, 92-98 (2005); A. C. Millard, L. Jin, M.-D. Wei, J. P. Wuskell, A. Lewis, and L. M. Loew, “Sensitivity of Second Harmonic Generation from Styryl Dyes to Transmembrane Potential,” Biophys. J. 86, 1169-1176 (2004). Our current microscope combines a Fluoview (Olympus) scan-head and an Axiovert (Zeiss) inverted microscope constructed for multiple imaging methodologies including wide-field, one-photon excitation fluorescence imaging, as well as SHG and 2PF imaging. Our laser sources include a Mira (Coherent) Ti:sapphire laser and a Femtopower (Fianium) fiber laser operating at 1064 nm. […] Fluorescence is imaged (for linear imaging) or collected (for non-linear imaging) back through the excitation objective, while SHG is collected in the forward, transmitted light direction by a condenser, either 0.8 NA or 0.55 NA (Zeiss). […]
# [2] = One-photon absorption and emission spectra in multilamellar lipid vesicles, water and ethanol; type: physicochemical
# Source text: […] The column indicating relative signal change for one-photon fluorescence also lists the excitation light source used and the lower bounds of the long-pass emission detected.
# Absorption and emission spectra were obtained for a series of dyes with different acceptors: pyridinium (PY-1261), quinolinium (PY-212), and acridinium (PY-2240).
# [3] = tested on: NIE-115 mouse neuroblastoma; test: Time-dependence (kinetics) of SHG and 2PF signal change after voltage-clamp step; type: cell-based; settings: time resolution 5 ms
# Source text: For full details of our non-linear imaging microscope, we refer the reader to previously published descriptions. A. C. Millard, P. J. Campagnola, W. Mohler, A. Lewis, and L. M. Loew, “Second Harmonic Imaging Microscopy,” Meth. Enzymol. 361, 47-69 (2003); Millard, A. C., L. Jin, and L. M. Loew, “Second Harmonic Generation Imaging Microscopy with a High Power Ultrafast Fiber Laser,”Commercial and Biomedical Applications of Ultrafast Lasers. 5714-5716, 92-98 (2005); A. C. Millard, L. Jin, M.-D. Wei, J. P. Wuskell, A. Lewis, and L. M. Loew, “Sensitivity of Second Harmonic Generation from Styryl Dyes to Transmembrane Potential,” Biophys. J. 86, 1169-1176 (2004). Our current microscope combines a Fluoview (Olympus) scan-head and an Axiovert (Zeiss) inverted microscope constructed for multiple imaging methodologies including wide-field, one-photon excitation fluorescence imaging, as well as SHG and 2PF imaging. Our laser sources include a Mira (Coherent) Ti:sapphire laser and a Femtopower (Fianium) fiber laser operating at 1064 nm. Millard, A. C., L. Jin, and L. M. Loew, “Second Harmonic Generation Imaging Microscopy with a High Power Ultrafast Fiber Laser,”Commercial and Biomedical Applications of Ultrafast Lasers. 5714-5716, 92-98 (2005). For excitation, we routinely use an IR-Achroplan (Zeiss) 40×, 0.8 NA water-immersion objective though for shorter wavelengths we also use an A-Plan (Zeiss) 40×, 0.65 NA air objective. Fluorescence is imaged (for linear imaging) or collected (for non-linear imaging) back through the excitation objective, while SHG is collected in the forward, transmitted light direction by a condenser, either 0.8 NA or 0.55 NA (Zeiss). For optimal collection, the numerical aperture of the condenser should be at least 1/√2 of the numerical aperture of the excitation objective (L. Moreaux, O. Sandre, S. Charpak, M. Blanchard-Desce, and J. Mertz, “Coherent Scattering in Multi-Harmonic Light Microscopy,” Biophys. J. 80, 1568-1574 (2001); L. Moreaux, O. Sandre, and J. Mertz. “Membrane Imaging by Second Harmonic Generation Microscopy,” J. Opt. Soc. Am. B. 17, 1685-1694 (2000)), though in practice a condenser of slightly lower numerical aperture will often suffice. Since the wavelength of second harmonic light is precisely half that of the excitation light, the choice of filter for SHG imaging is greatly simplified and the primary concern is the blocking of the excitation light that is also transmitted through the sample as well as fluorescence that is emitted forwards.
# NIE-115 mouse neuroblastoma were cultured in DMEM with 10% fetal bovine serum and 1% antibiotic-antimycotic (Invitrogen, Carlsbad, Calif.) in a 60 mm plastic dish (353002, Becton Dickinson, Franklin Lakes, N.J.). The culture was maintained at 37° C. with 5% CO2 for a period of 48 hours prior to experimentation.
# For experimentation the growth medium was replaced with 3 mL of Earle's Balanced Salt Solution (EBSS, Sigma, St. Louis, Mo.) with 20 mM HEPES (Merck Biosciences AG, Laufelfingen, Switzerland). The internal buffer, injected into the patch pipette, was a potassium aspartate (140 mM, Sigma, St. Louis, Mo.), sodium chloride (5 mM, Sigma, St. Louis, Mo.) and HEPES (10 mM) solution at a pH of 7.35. The pH was adjusted with potassium hydroxide and hydrochloric acid.
# For characterizing the voltage-sensitivity of SHG and 2PF, we used a slow (˜0.1 Hz) switching protocol as previously described (A. C. Millard, P. J. Campagnola, W. Mohler, A. Lewis, and L. M. Loew, “Second Harmonic Imaging Microscopy,” Meth. Enzymol. 361, 47-69 (2003); Millard, A. C., L. Jin, and L. M. Loew, “Second Harmonic Generation Imaging Microscopy with a High Power Ultrafast Fiber Laser,” Commercial and Biomedical Applications of Ultrafast Lasers. 5714-5716, 92-98 (2005); A. C. Millard, L. Jin, M.-D. Wei, J. P. Wuskell, A. Lewis, and L. M. Loew, “Sensitivity of Second Harmonic Generation from Styryl Dyes to Transmembrane Potential,” Biophys. J. 86, 1169-1176 (2004)) with a 50 mV step. […]
# [4] = One-photon fluorescence relative signal change per 100 mV; settings: excitation / long-pass emission (nm) given
# Source text: The left-most data columns of Table 1 are the absorption and emission maxima for one photon fluorescence in soybean multi-lamellar lipid vesicles used to mimic the membrane environment. The column indicating relative signal change for one-photon fluorescence also lists the excitation light source used and the lower bounds of the long-pass emission detected.
# [5] = tested on: layer V pyramidal neurons; test: Voltage-sensitive dye imaging of action potentials in intracellularly stained pyramidal neurons in brain slices; type: cell-based, Sprague Dawley rats
# Source text: Sprague Dawley rats (P21-42) were anesthetized with isoflurane, decapitated, and the brains were removed with the head immersed in ice-cold, artificial cerebrospinal fluid (ACSF), according to an animal protocol approved by the Center for Laboratory Animal Care, University of Connecticut. Brain slices (300 μm) were cut from frontal lobes in the coronal plane. ACSF contained (in mM) 125 NaCl, 26 NaHCO3, 10 glucose, 2.3 KCl, 1.26 KH2PO4, 2 CaCl2 and 1 MgSO4, pH 7.4. Whole-cell recordings were made from visually identified layer V pyramidal neurons on the medial part of the slice. Intracellular solution contained (in mM) 135 K-gluconate, 2 MgCl2, 3 Na2-ATP, 10 Na2-phosphocreatine, 0.3 Na2-GTP and 10 Hepes (pH 7.3, adjusted with KOH). Electrical signals were amplified with Multiclamp 700A and digitized with two input boards: (1) Digidata Series 1322A (Axon Instruments) at 5 kHz, and (2) Neuroplex (RedShirtImaging) at 2.7 kHz sampling rate. Only cells with a membrane potential more hyperpolarized than −50 mV, and action potential amplitudes exceeding 80 mV (measured from the base line) were included in this study. All experiments were performed on layer 5 cortical pyramidal cells at 34° C.
# Blue dyes were stored in ethanol stock solution at −20° C. On the day of the recording blue dyes were dissolved in standard K-gluconate based intracellular solution. A loading pipette was filled with two varieties of the same intracellular solution; one with and one without dye. Dye-free solution was occupying the very tip of the pipette, while the back of the pipette lumen was microloaded with dye-rich solution. The purpose of dye-free solution in the tip of the patch pipette was to prevent dye-leak during the maneuver through brain slice tissue. VSD styryl dyes are lipophilic and bind indiscriminately and irreversibly to all membranes around the neuron of interest. Even a small amount of dye that leaks out of the pipette during the formation of the gigaohm seal, can generate strong fluorescent background. Fluorescent light emanating from surrounding tissue has a devastating effect on dendritic optical signals. Elimination of the background fluorescence is critical for dendritic voltage imaging. How much dye-free solution one should put in the tip depends on time period between the submersion of the patch pipette into the recording chamber and formation of the gigaohm seal. The faster one can perform this maneuver the less dye-free solution she needs to achieve optimal staining.
# Blue VSD were injected at room temperature for 25-60 minutes. The filling pipette was carefully pulled out (outside-out patch) and brain slices were left to incubate for 20-120 minutes at room temperature. Just before optical recordings the cells were re-patched with dye-free pipette at the physiological temperature (34° C.).
# Voltage-sensitive dye imaging was performed on a Zeiss Axioskope 2FS microscope equipped with NeuroCCD camera (RedShirtImaging). We used Zeiss 40× objective IR-Achroplan 0.80 W. The size of the square visual field captured by NeuroCCD camera was 384×384 um. In the place of the arc lamp (normally used for epi-illumination), we inserted a 200 μm fiber optic guide with a collimator. Laser beam was focused on the other side of the fiber optic guide using a microscope objective-like lens. This arrangement produced a motionless spot of laser light (˜25 μm in diameter) at the object plane. An illuminated section of the brain slice, projected onto the NeuroCCD camera, covered approximately 25 pixels when used with 40× objective lens. At this magnification, one pixel sampled a 4.8×4.8 square in the object plane. A region of interest (ROI) was brought into the laser spot using X-Y microscope platform. The laser beam was interrupted by an electro-programmable shutter (Uniblitz®). Attention was made to limit the exposure time during the recording and positioning of the neuron.
# [6] = tested on: layer V pyramidal neurons; test: Toxicity / photodynamic damage: AP half-width during optical recording
# Source text: S. Antic, G. Major, D. Zecevic, “Fast optical recordings of membrane potential changes from dendrites of pyramidal neurons”, Journal of Neurophysiology, 82, 1615-1621 (1999). Accumulation of reactive oxygen species (free radicals), which interact with and damage neuronal plasmalemma, is the most likely mechanism. J. B. Feix, B. Kalyanaraman, “Production of singlet oxygen-derived hydroxyl radical adducts during merocyanine-540-mediated photosensitization: analysis by ESR-spin trapping and HPLC with electrochemical detection”, Archives of Biochemistry & Biophysics, volume 291, pages 43-51 (1991). High intensity illumination during optical recording sessions excites large number of membrane bound dye molecules. Since styryl dyes have tendency to penetrate deep into the lipid bilayers (E. Fluhler, V. G. Burnham, L. M. Loew, “Spectra, membrane binding, and potentiometric responses of new charge shift probes”, Biochemistry, 24, 5749-5755 (1985)), free radicals are produced literally inside the neuronal membrane. […] S. D. Antic, “Action potentials in basal and oblique dendrites of rat neocortical pyramidal neurons”, Journal of Physiology 550, 35-50 (2003). […] Since dye loading was always done at room temperature (21° C.) and re-patching at 34° C., we could not compare AP shape and size before and after dye loading. Therefore, in order to check the extent of dye toxicity we designed a group of experiments in which neurons were injected and incubated at 34° C. During the dye injection (loading phase), in regular time intervals (3-5 min) direct current pulses was used to slowly charge the membrane and trigger an AP (FIG. 14A). Identical current pulse was then applied at the end of dye loading phase, just before the electrode pull-out (FIG. 14B) and after the 50-90 min incubation period (FIG. 14C, re-patch). […] To avoid AP jitter in optical recordings we used shorter and stronger current pulses (FIG. 14D, E, F, insets). However, from time to time we returned to AP-testing current injection protocol (FIG. 14D, E), while keeping the count on the number of cumulative high-intensity light exposures (# sweeps). […] Additional experimental details can be found in Ping Yan, Aifang Xie, Meide Wei, and Leslie M. Loew, “Amino(oligo)thiophene-Based Environmentally Sensitive Biomembrane Chromophores”, Journal of Organic Chemistry, published on web Jul. 30, 2008.
# [7] = one photon, soybean multi-lamellar lipid vesicles
Compound,SHG signal sensitivity relative to another dye [1],"1PF Abs. Max [2, 7]","1PF Em. Max [2, 7]",SHG Kinetics (exponential time constant) [3],1PF Change (ΔF/F-100 mv) [4],Absorbance ethanol ([2]; ethanol),Emission ethanol ([2]; ethanol),Absorbance MLV ([2]; multilamellar lipid vesicles),Emission MLV ([2]; multilamellar lipid vesicles),Absorbance water ([2]; water),"AP-associated optical signal, single example (base line-to-peak) ([5]; FIG. 11, basal dendrite)",S/N ratio at 532 nm ([5]; laser spot 532 nm),"slope of linear fit, AP half-width versus cumulative sweeps ([6]; FIG. 15A, 15C)",sweeps recorded before AP half-width grew by more than 15% from control ([6]; n=12)
CC[N+](CC)(CC)CCC[n+]1ccc(/C=C/c2ccc(-c3ccc(N(C)C)s3)s2)cc1 [PY-1282],three-fold increase,530 nm,676 nm,16 ± 1 ms,8.0E−002; 640/>715 ΔF/F-100 mv,–,–,–,–,–,–,–,–,–
"Di-1-ANEPEQ [JPW-3028, reference compound]",–,–,–,–,–,511 nm,718 nm,457 nm,670 nm,440 nm,5 % ΔF/F,{at 532 nm = 5.95 ± 2.16},0.0027,86±28 sweeps
